# Measurements published in patent US5242938A, “Derivatives of virginiamycin M1” (Merck & Co., Inc., priority 1992, dated 1993).
# Read-outs that look alike come from different tables or passages of the source.
# Legend:
# [1] = biological target: T1, CCK-B (guinea pig cortex) (Cavia porcellus, UniProt H0VZC5); assay: [3H]L-365,260 CCK-B selective antagonist ligand binding, brain membranes; conditions: for IC50: read-out: CCK binding inhibition - IC50, [3H]L-365,260
# T1 construct: guinea pig cortical preparations; from tissue; host or cells: guinea pig brain cortex membranes
# T1 sequence (H0VZC5 1-426): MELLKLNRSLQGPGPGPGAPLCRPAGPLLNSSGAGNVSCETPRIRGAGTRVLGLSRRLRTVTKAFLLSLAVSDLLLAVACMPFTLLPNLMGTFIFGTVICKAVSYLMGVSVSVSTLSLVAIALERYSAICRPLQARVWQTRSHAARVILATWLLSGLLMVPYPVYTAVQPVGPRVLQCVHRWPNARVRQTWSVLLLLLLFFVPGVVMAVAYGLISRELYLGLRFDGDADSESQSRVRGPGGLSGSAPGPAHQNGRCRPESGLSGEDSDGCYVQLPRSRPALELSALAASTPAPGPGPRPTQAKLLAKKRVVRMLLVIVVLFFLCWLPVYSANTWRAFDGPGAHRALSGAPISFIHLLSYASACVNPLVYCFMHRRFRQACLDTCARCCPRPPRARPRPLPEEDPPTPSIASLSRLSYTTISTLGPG
# Procedure: (§1) The resulting supernatant was re-spun at 20,000×g for 20 minutes. […] Incubations were for 40 minutes at 4° C. and were terminated by filtration and washing with ice cold 100 mM saline. […] Incubations were for 30 minutes at room temperature and were terminated by filtration over GF/C filters and washing with 100 mM NaCl.
# [2] = system: Corynebacterium pseudodiphtheriticum (Mb 261, ATCC 9742); assay: Agar diffusion disc assay, Cory 261; assay type: cell-based; conditions: Corynebacterium pseudodiphtheriticum, ATCC9742, 18 h; @ 20 g/disc; read-out: Inhibition zone diameter, Cory 261
# Procedure: (§2) Cultures employed in evaluating antimicrobial activity included plant pathogens, human and animal opportunistic pathogens and selected laboratory strains having specific-antibiotic sensitivities or chromosomal or R-plasmid-mediated resistances. […] The agar diffusion MIC's were determined using the method described by Barry in Anitbiotics in Laboratory Medicine, 2nd Ed., Ed. V. Lorian, pp. 1-63, William & Wilkins, Baltimore, 1986. Each test compound was dissolved in methanol to a concentration of 1 mg/ml. Serial dilutions of these compounds were also made to determine an agar diffusion MIC. 20 μl of each dilution was pipetted on to 6 mm paper discs, air dried and placed onto the surface of an agar plate seeded with the appropriate bacteria (~10^6 cfu). Seeded agar plates were incubated overnight (~18 hours) at 25° C. Zone sizes were measured to the nearest mm. Each compound was tested in triplicate and the results shown represent the mean.
# [3] = system: Escherichia coli (Mb 1418); assay: Agar diffusion disc assay, Coli 1418; assay type: cell-based; conditions: Escherichia coli, 18 h; @ 20 g/disc; read-out: Inhibition zone diameter, Coli 1418
# Procedure: as §2
# [4] = system: Streptococcus faecium (Mb 2820); assay: Agar diffusion disc assay, Str 2820; assay type: cell-based; conditions: Enterococcus faecium, 18 h; @ 20 g/disc; read-out: Inhibition zone diameter, Str 2820
# Procedure: as §2
# [5] = system: Bacillus subtilis (Mb 964, ATCC 6633); assay: Agar diffusion disc assay, Subt 964; assay type: cell-based; conditions: Bacillus subtilis, ATCC6633, 18 h; @ 20 g/disc; read-out: Inhibition zone diameter, Subt 964
# Procedure: as §2
# [6] = biological target: T2, CCK-A (rat pancreas) (Rattus norvegicus, UniProt P30551); assay: [125I]BHCCK-8 radioligand binding, rat pancreatic preparation; conditions: read-out: CCK binding inhibition - IC50, [125I]BHCCK
# T2 construct: from tissue; host or cells: rat pancreas
# T2 sequence (P30551 1-444): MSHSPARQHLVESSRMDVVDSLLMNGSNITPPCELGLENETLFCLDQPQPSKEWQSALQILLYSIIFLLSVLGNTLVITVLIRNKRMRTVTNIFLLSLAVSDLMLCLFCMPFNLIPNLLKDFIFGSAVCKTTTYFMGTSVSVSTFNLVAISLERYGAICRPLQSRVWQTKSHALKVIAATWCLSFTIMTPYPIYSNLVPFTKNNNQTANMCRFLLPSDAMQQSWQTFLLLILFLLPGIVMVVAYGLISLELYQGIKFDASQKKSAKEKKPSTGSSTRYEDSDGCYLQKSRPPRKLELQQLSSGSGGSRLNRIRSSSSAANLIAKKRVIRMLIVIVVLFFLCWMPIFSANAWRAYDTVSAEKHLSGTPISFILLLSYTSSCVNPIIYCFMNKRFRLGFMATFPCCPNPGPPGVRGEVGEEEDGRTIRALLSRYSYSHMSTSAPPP
# Procedure: as §1
# [7] = system: En terobacter aergenes (Mb 835); assay: Agar diffusion disc assay, Ent 835; assay type: cell-based; conditions: 18 h; @ 20 g/disc; read-out: Inhibition zone diameter, Ent 835
# Procedure: as §2
# [8] = biological target: T1, CCK-B (guinea pig cortex); assay: [125I]BHCCK-8 radioligand binding, guinea pig cortical preparation; conditions: read-out: CCK binding inhibition - IC50, [125I]BHCCK
# Procedure: as §1
# [9] = system: Pseudomonas stutzeri (Mb 1231, ATCC 11607); assay: Agar diffusion disc assay, Pseu 1231; assay type: cell-based; conditions: Stutzerimonas stutzeri, ATCC11607, 18 h; @ 20 g/disc; read-out: Inhibition zone diameter, Pseu 1231
# Procedure: as §2
# [10] = system: Salmonella gallinarum (Mb 1287); assay: Agar diffusion disc assay, Salm 1287; assay type: cell-based; conditions: Salmonella enterica, GALLINARUM, 18 h; @ 20 g/disc; read-out: Inhibition zone diameter, Salm 1287
# Procedure: as §2
# [11] = system: Staphylococcus aureus (Mb 108, ATCC 6538P); assay: Agar diffusion disc assay, Sta 108; assay type: cell-based; conditions: Staphylococcus aureus, ATCC6538P, 18 h; @ 20 g/disc; read-out: Inhibition zone diameter, Sta 108
# Procedure: as §2
# [12] = biological target: T2, CCK-A (rat pancreas); assay: [3H]L-364,718 CCK-A selective antagonist ligand binding, pancreas; conditions: for IC50: read-out: CCK binding inhibition - IC50, [3H]L-364,718
# Procedure: as §1
# [13] = system: Micrococcus luteus (Mb 1101, ATCC 9341); assay: Agar diffusion disc assay, Micr 1101; assay type: cell-based; conditions: Micrococcus luteus; for MIC: read-out: Agar Diffusion MIC versus Micrococcus luteus; for zone of inhibition at 10 µg/disc: 10.0 μg/disc
# Procedure: as §2
# [14] = system: Bacillus sp. (Mb 633); assay: Agar diffusion disc assay, Baci 633; assay type: cell-based; conditions: Bacillus, 18 h, @ 20 g/disc; read-out: Inhibition zone diameter, Baci 633
# Procedure: as §2
# [15] = system: Streptococcus agalactiae (Mb 2875); assay: Agar diffusion disc assay, Str 2875; assay type: cell-based; conditions: Streptococcus agalactiae, 18 h; @ 20 g/disc; read-out: Inhibition zone diameter, Str 2875
# Procedure: as §2
# [16] = system: Staphylococcus aureus (Mb 2983); assay: Agar diffusion disc assay, Sta 2983; assay type: cell-based; conditions: Staphylococcus aureus, 18 h; @ 20 g/disc; read-out: Inhibition zone diameter, Sta 2983
# Procedure: as §2
# [17] = ATCC9341, 18 h, @ 20 g/disc, read-out: Inhibition zone diameter, Micr 1101
# [18] = ATCC9341, 25° C., ~18 hours, read-out: Mean of triplicate zone size versus Micrococcus luteus
# [19] = ATCC9341, 20.0 μg/disc, 25° C., ~18 hours, read-out: Mean of triplicate zone size versus Micrococcus luteus
Compound,"A.R. = agonist ratio = IC50([3H]L365,260)/IC50([125I]CCK) [1]",IC50 [1] [nM],zone of inhibition at 20 µg/disc [2] [mm],zone of inhibition at 20 µg/disc [3] [mm],zone of inhibition at 20 µg/disc [4] [mm],zone of inhibition at 20 µg/disc [5] [mm],IC50 [6] [nM],zone of inhibition at 20 µg/disc [7] [mm],IC50 [8] [nM],zone of inhibition at 20 µg/disc [9] [mm],zone of inhibition at 20 µg/disc [10] [mm],zone of inhibition at 20 µg/disc [11] [mm],IC50 [12] [nM],"zone of inhibition at 20 µg/disc [13, 17] [mm]","MIC ([13]; ATCC9341, 18 h) [µM]","zone of inhibition at 10 µg/disc [13, 18] [mm]","zone of inhibition at 20 µg/disc [13, 19] [mm]",zone of inhibition at 20 µg/disc [14] [mm],zone of inhibition at 20 µg/disc [15] [mm],zone of inhibition at 20 µg/disc [16] [mm],further results
CC1=C\[C@@H](OC(=O)Nc2ccccc2)CC(=O)Cc2nc(co2)C(=O)N2CCC=C2C(=O)O[C@H](C(C)C)[C@H](C)/C=C/C(=O)NC\C=C\1 [Example 11],5.3,1600,0,0,0,0,2300,0,300,0,0,0,4000,14,0.05,12,12,0,0,0,"A.R. = agonist ratio ([12]; [3H]L-364,718 / [125I]BHCCK): 1.7; zone of inhibition at 1.25 µg/disc ([13]; ATCC9341, 1.25 μg/disc, 25° C., ~18 hours, read-out: Mean of triplicate zone size versus Micrococcus luteus): 7 mm; zone of inhibition at 2.5 µg/disc ([13]; ATCC9341, 2.50 μg/disc, 25° C., ~18 hours, read-out: Mean of triplicate zone size versus Micrococcus luteus): 10 mm; zone of inhibition at 5 µg/disc ([13]; ATCC9341, 5.00 μg/disc, 25° C., ~18 hours, read-out: Mean of triplicate zone size versus Micrococcus luteus): 11 mm"
CC1=C\[C@@H](OC(=O)c2ccccc2)CC(=O)Cc2nc(co2)C(=O)N2CCC=C2C(=O)O[C@H](C(C)C)[C@H](C)/C=C/C(=O)NC\C=C\1 [Example 6],2,190,0,0,0,0,2300,0,96,0,0,0,> 3000,8,0.003,10,9,0,0,0,"zone of inhibition at 40 µg/disc ([13]; ATCC9341, 40.0 μg/disc, 25° C., ~18 hours, read-out: Mean of triplicate zone size versus Micrococcus luteus): 10 mm; zone of inhibition at 80 µg/disc ([13]; ATCC9341, 80.0 μg/disc, 25° C., ~18 hours, read-out: Mean of triplicate zone size versus Micrococcus luteus): 10 mm; zone of inhibition at 160 µg/disc ([13]; ATCC9341, 160 μg/disc, 25° C., ~18 hours, read-out: Mean of triplicate zone size versus Micrococcus luteus): 11 mm"
